Data from patent US20220241249A1, “PHARMACEUTICAL COMPOSITION AND KIT CONTAINING NOVEL PENAM DERIVATIVE OR SALT THEREOF AND ONE OR MORE COMPOUNDS SELECTED FROM beta-LACTAMASE INHIBITORY COMPOUND AND ANTIBACTERIAL COMPOUND OR SALTS THEREOF” (priority 2019, published 2022).
Like-named read-outs stand apart in the source and are kept apart here.

Experiments:
Format in all cases: cell-based
[1] = system: Klebsiella pneumoniae Y-1069 strain producing OXA-48 and CTX-M-15 (strain F); test: MIC of test compound alone or with β-lactamase inhibitor at 4 μg/mL; settings: for MIC: Klebsiella pneumoniae, Strain F
Experimental: (§1) The evaluation test for antibacterial activity was performed in the same manner as in Test Example 1.
(§2) An antibacterial activity evaluation test was performed in the same manner as in Test Example 6.
(§3) As the bacterial strain, the strains B, C, and D producing β-lactamase and a Klebsiella pneumoniae Y-1069 strain (hereinafter, called strain F) producing OXA-48 and CTX-M-15 were used.

[2] = system: Klebsiella pneumoniae Y-1133 strain producing NDM-1, OXA-48, and CTX-M-15 (strain C); test: as above; settings: Klebsiella pneumoniae
Experimental: (§4) By using a broth microdilution method, the combinational effect of a test compound and a β-lactamase inhibitor was evaluated.
as §1
Klebsiella pneumoniae Y-1133 strain producing NDM-1, OXA-48, and CTX-M-15 (hereinafter, called strain C),
as §2, §3

[3] = system: Klebsiella pneumoniae Y-1020 strain producing KPC-3 and SHV-12 (strain B); test: as above; settings: Klebsiella pneumoniae, Strain B, read-out: MIC
Experimental: as §4, §1

[4] = system: GES-19 and GES-20-containing Pseudomonas aeruginosa strain (S-3759); test: Antibacterial activity evaluation test, MIC by broth microdilution (CLSI); settings: Pseudomonas aeruginosa S-3759
In short: (§5)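 Colonies grown overnight on Mueller Hinton agar, suspended to 0.5 McFarland and diluted 10-fold as inoculum. Incubation in cation-adjusted Mueller Hinton broth with test compound at 35° C for 16–20 h. MIC (μg/mL) is the lowest concentration with no visible growth.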

[5] = system: KPC-2-containing Klebsiella pneumoniae strain (Y-995); test: as above; settings: Klebsiella pneumoniae Y-995
In short: as §5

[6] = system: Pseudomonas aeruginosa strain ATCC27853; test: as above; settings: Pseudomonas aeruginosa, ATCC27853
In short: as §5

[7] = system: OXA-48-containing Klebsiella pneumoniae strain (Y-1062); test: as above; settings: Klebsiella pneumoniae Y-1062
In short: as §5

[8] = system: AmpC-derepressed Pseudomonas aeruginosa mutant strain (S-3028); test: as above; settings: Pseudomonas aeruginosa S-3028
In short: as §5

[9] = system: NDM-1-containing Klebsiella pneumoniae strain (Y-1007); test: as above; settings: Klebsiella pneumoniae Y-1007
In short: as §5

[10] = system: IMP-1-containing Pseudomonas aeruginosa strain (S-2838); test: as above; settings: Pseudomonas aeruginosa S-2838
In short: as §5

[11] = system: CTX-M-15-containing Escherichia coli strain (TK-1747); test: as above; settings: Escherichia coli TK-1747
In short: as §5

[12] = system: VIM-2-containing Pseudomonas aeruginosa strain (S-3779); test: as above; settings: Pseudomonas aeruginosa S-3779
In short: as §5

[13] = system: Escherichia coli TK-3113 strain producing IMP-8 (strain D); test: MIC of test compound alone or with β-lactamase inhibitor at 4 μg/mL; settings: Escherichia coli
Experimental: as §4, §1
Escherichia coli TK-3113 strain producing IMP-8 (hereinafter, called strain D),
as §2, §3

[14] = test compound alone (β-lactamase inhibitor N/A)

Row | Structure (SMILES) | Antibacterial activity (MIC) Pseudomonas aeruginosa S-3759 [4] [µg/mL] | Antibacterial activity (MIC) Klebsiella pneumoniae Y-995 [5] [µg/mL] | Antibacterial activity (MIC) Pseudomonas aeruginosa ATCC 27853 [6] [µg/mL] | Antibacterial activity (MIC) Klebsiella pneumoniae Y-1062 [7] [µg/mL] | Antibacterial activity (MIC) Pseudomonas aeruginosa S-3028 [8] [µg/mL] | Antibacterial activity (MIC) Klebsiella pneumoniae Y-1007 [9] [µg/mL] | Antibacterial activity (MIC) Pseudomonas aeruginosa S-2838 [10] [µg/mL] | Antibacterial activity (MIC) Escherichia coli TK-1747 [11] [µg/mL] | Antibacterial activity (MIC) Pseudomonas aeruginosa S-3779 [12] [µg/mL] | other results
1 | CC(C)(O/N=C(\C(=O)NC1C(=O)N2C[C@@](C(=O)O)(N3CCN(NC(=O)C(=O)c4c(F)cc(O)c(O)c4Cl)C3=O)S[C@H]12)c1csc(N)n1)C(=O)O (stereo partly shown) [Example 143] | 1 | 0.12 | 0.5 | 2 | 0.12 | < 0.06 | 0.5 | 0.12 | 0.25 | MIC [1, 14]: 8 µg/mL; MIC ([1]; with AVI at 4 μg/mL): 0.25 µg/mL; MIC ([1]; with CVA at 4 μg/mL): 4 µg/mL; MIC ([1]; with NAC at 4 μg/mL): 0.12 µg/mL; MIC ([1]; with SBT at 4 μg/mL): 4 µg/mL; MIC ([1]; with TAZ at 4 μg/mL): 4 µg/mL; MIC ([1]; with ZID at 4 μg/mL): < 0.015 µg/mL; antibacterial activity in combination with a β-lactamase inhibitor versus without ([1]; for all the bacterial strains (strains B, C, D and F), summary of Tables 51 and 52): higher antibacterial activity; MIC ([2]; with NAC at 4 μg/mL): 0.06 µg/mL; MIC ([2]; with ZID at 4 μg/mL): < 0.015 µg/mL; MIC [3, 14]: 2 µg/mL; MIC ([3]; with AVI at 4 μg/mL): 0.5 µg/mL; MIC ([3]; with CVA at 4 μg/mL): 1 µg/mL; MIC ([3]; with NAC at 4 μg/mL): 0.03 µg/mL; MIC ([3]; with VOB at 4 μg/mL): 1 µg/mL; MIC ([3]; with ZID at 4 μg/mL): 0.03 µg/mL; MIC [13, 14]: 0.5 µg/mL; MIC ([13]; with NAC at 4 μg/mL): < 0.015 µg/mL; MIC ([13]; with ZID at 4 μg/mL): < 0.015 µg/mL
2 | CC(C)(O/N=C(\C(=O)NC1C(=O)N2C[C@@](C(=O)O)(N3CCN(NC(=O)NNC(=O)C(=O)c4ccc(O)c(O)c4Cl)C3=O)S[C@H]12)c1csc(N)n1)C(=O)O (stereo partly shown) [Example 153] | 2 | 0.25 | 0.5 | 4 | 0.12 | < 0.06 | 0.5 | 0.5 | 1 | 
3 | CC(C)(O/N=C(\C(=O)N[C@@H]1C(=O)N2C[C@@](C(=O)O)(N3CCN(NC(=O)c4c[nH]c5cc(O)c(O)cc5c4=O)C3=O)S[C@H]12)c1csc(N)n1)C(=O)O [Example 154, (3R,5R,6R)-6-((Z)-2-(2-aminothiazol-4-yl)-2-(((2-carboxypropan-2-yl)oxy)imino)acetamido)-3-(3-(6,7-dihydroxy-4-oxo-1,4-dihydroquinoline-3-carboxamido)-2-oxoimidazolidin-1-yl)-7-oxo-4-thia-1-azabicyclo[3.2.0]heptane-3-carboxylic acid] | 4 | 0.25 | 2 | 2 | 0.5 | 0.25 | 4 | 0.5 | 2 | 
4 | CC(C)(O/N=C(\C(=O)NC1C(=O)N2C[C@@](C(=O)O)(N3CCC[C@H](NC(=O)C(=O)c4ccc(O)c(O)c4Cl)C3=O)S[C@H]12)c1csc(N)n1)C(=O)O (stereo partly shown) [Example 156] | 2 | 0.12 | 2 | 0.5 | 0.5 | < 0.06 | 1 | 0.12 | 1 | 
